The target of assay [1] is T1, Human Bcl-2 protein (Homo sapiens, UniProt P10415).
T1 construct: purchased Novus Biologicals
Description: Evaluation of binding of compound to Bcl-2 by surface plasmon resonance (SPR)-2, Example 13. The note with it: for Kd: Biacore T200, biotinylated Bcl-2 immobilized on Sensor Chip SA, 15° C., read-out: Equilibrium dissociation constant KD. On the procedure: (§1) A surface plasmon resonance method was used in order to analyze the binding affinity of the compounds synthesized in Example 12 for Bcl-2, which are shown in Table 13-1. The apparatus used was Biacore T200 (GE Healthcare Japan Corp.), and the running buffer used was HBS (10 mM HEPES-NaOH and 150 mM NaCl, pH 7.4) supplemented with 1 mM DTT, 3 mM EDTA, 0.01% Tween 20 and 4% DMSO. Human Bcl-2 protein (Novus Biologicals) was biotinylated using EZ-Link NHS-PEG4-Biotin (Thermo Fisher scientific Inc.) and immobilized on the surface of Sensor Chip SA (Cytiva). Then, compound solutions having a plurality of concentrations and the running buffer (blank) were added to the Bcl-2-immobilized surface to obtain the binding response of the compounds. Measurement was performed at 15° C.
The obtained sensorgrams were treated with Biacore T200 Evaluation Software, and the equilibrium dissociation constant KD of each compound for Bcl-2 was determined as shown in the following Table 13-2.
(In general: Surface plasmon resonance follows binding to a sensor surface in real time, without labels.)

Assay [2] deals with T2, Bcl-2 protein (Recombinant Human Bcl-2 Protein) (Homo sapiens, UniProt P10415).
T2 construct: purchased Novus Biologicals NBP2-34889
Description: AS-MS evaluation of binding of the mixture libraries of Examples 8 and 9 to Bcl-2, ASMS ratio (%), Example 11. The note with it: ASMS ratio, mixtures obtained from Example 9, 10 uM Bcl-2 protein; for AS-MS(%) N1: replicate N1; for AS-MS(%) N2: replicate N2; for AS-MS(%) N3: replicate N3 (additional day); for AS-MS(%) N4: replicate N4 (additional day). On the procedure:
DMSO solutions (prepared into approximately 5 mM based on calculation from the average molecular weight of each mixture) of the mixtures of each Example shown in Table 11-1-1 were respectively dispensed to 8 wells of MICROPLATE, 96-WELL, PP, V-BOTTOM (Greiner Bio-One International GmbH, 651201). 400 nL each from the 8 wells of the mixtures obtained from Example 8 was dispensed into 3 designated wells while 200 nL each from the 8 wells of the mixtures obtained from Example 9 was dispensed into 3 designated wells, using LABCYTE ECHO® 555 acoustic dispensing system (Beckman Coulter, Inc.). 200 nL each of two types of 10 μM positive controls (B2Q045-01 and B2Q048-01) was dispensed to the mixtures obtained from Example 8. Likewise, 100 nL each of two types of 20 μM positive controls and 400 nL of a DMSO solution by backfill was dispensed to the mixtures obtained from Example 9. Further, Bcl-2 protein (Novus Biologicals, NBP2-34889, Recombinant Human Bcl-2 Protein, Lot E60145051) (19.2 μL) prepared at 5 µM (final protein concentration) for the mixtures obtained from Example 8 and 10 µM (final protein concentration) for the mixtures obtained from Example 9, in advance using a Tris-HCl buffer (25 mM Tris-HCl, pH 7.4, 150 mM NaCl, 0.025% Tween-20, and 1 mM DTT) was added to the well containing the dispensed 1000 compounds or 500 compounds (final compound concentration: 100 nM), and the plate was incubated at 23° C. for 1 hour in the dark. Subsequently, 200 μL of an assay buffer (25 mM Tris-HCl, pH 7.4, 150 mM NaCl, 0.025% Tween-20, and 1 mM DTT) was centrifuged three times at 2000×G at 4° C. for 2 minutes using 96-well MacroSpin column, P-2 Material (Harvard Bioscience, Inc., 74-5655) that had been allowed to swell to condition the 96-well MacroSpin column. Subsequently, 20 μL of the sample thus incubated was added to the 96-well MacroSpin column, P-2 Material after the completion of conditioning, and SEC treatment was performed by centrifugation at 2000×G for 2 minutes. 32 μL of a 1:1 mixed solution of acetonitrile and methanol (LC/MS grade, FUJIFILM Wako Pure Chemical Corp.) was added to a flow-through liquid from SEC, and the mixture was centrifuged at 1800×G at 4° C. for 5 minutes. The supernatant was used as analysis sample ASMS (A). By a similar operation, a sample prepared at 500 compounds/well or 1000 compounds/well and supplemented with only a Tris-HCl buffer containing no Bcl-2 protein was incubated under the same conditions as above, and the same organic solvent as above was added thereto without 96-well MacroSpin column treatment. A supernatant obtained by a centrifugation operation was used as STD (B). Next, by a similar operation, a sample prepared at 1000 compounds/well or 500 compounds/well and supplemented with only a Tris-HCl buffer containing no Bcl-2 protein was incubated under the same conditions as above and treated with 96-well MacroSpin column in the same manner as above, and the same organic solvent as above was added thereto. A supernatant obtained by a centrifugation operation was used as BK (C). These samples were measured by reverse-phase LC/MS.
Then, the samples A, B and C were analyzed for the 1000 compounds or 500 compounds using TraceFinder 5.1 (Thermo Fisher Scientific Inc.) and CHANCE Software (in-house), and an ASMS ratio (%) was calculated according to the following expression.
The mixtures obtained from Example 8 were tested at the number of data of 2 (N1 and N2) in order to ensure reproducibility. The mixtures obtained from Example 9 were tested at the total number of data 4 (N1,N2, N3, and N4) involving the number of data of 2/day (N1 and N2) and data obtained on additional days.

Assay [3] deals with T1, Human Bcl-2 protein. In words: Evaluation of binding of compound to Bcl-2 by surface plasmon resonance (SPR), Example 7. The note with it: for equilibrium dissociation constant compared with compound B2Q045-01: SPR, comparison with B2Q045-01; for binding to Bcl-2 confirmed by SPR: compounds identified by AS-MS (Example 5), individually synthesized. The protocol: as §1, with “1 and Example 6,” for “12 for Bcl-2,”, “AK-01, for Bcl-2.” for “13-1.”, “Sulfo-NHS-LC-LC-biotin” for “NHS-PEG4-Biotin”, “(GE Healthcare Japan Corp.).” for “(Cytiva).”, “C.′.” for “C.”
The obtained sensorgrams were treated with Biacore T200 Evaluation Software, and the equilibrium dissociation constant KD of each compound for Bel-2 was determined as shown in the following Table AK-02 and Table AK-03.

The structures appear in SMILES notation.

T2 sequence (P10415 whole entry): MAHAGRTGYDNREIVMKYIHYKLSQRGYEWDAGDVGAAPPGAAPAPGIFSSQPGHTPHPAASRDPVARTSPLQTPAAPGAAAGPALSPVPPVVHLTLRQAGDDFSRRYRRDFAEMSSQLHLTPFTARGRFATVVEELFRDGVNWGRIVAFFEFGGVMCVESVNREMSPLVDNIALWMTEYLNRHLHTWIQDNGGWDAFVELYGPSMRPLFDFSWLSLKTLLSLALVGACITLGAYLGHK
T1 sequence (P10415 whole entry): as above

The term Kd denotes the free concentration of one partner at which half of the binding sites on the other are occupied at equilibrium, for simple one-to-one binding. As to `CCOc1cc(N2CCN(c3ccc(C(=O)NS(=O)(=O)c4ccc(N[C@H](CCN5CCOCC5)CSc5ccccc5)c([N+](=O)[O-])c4)cc3)CC2)cc2c1CCCC2C(=O)Nc1ccccc1` (stereo partly shown) [2-2-d1E04-2-0466], in assay [1], the Kd was 2450 nM. In assay [2], the “AS-MS(%) N1” value was determined as 53.4%, the “AS-MS(%) N2” value stood at 45.9%, the “AS-MS(%) N3” value worked out at 33.3% and the “AS-MS(%) N4” value was 36.8%.
For the compound `CCOc1cc(C(C)C(=O)Nc2nc3ccccc3s2)cc(N2CCN(c3ccc(C(=O)NS(=O)(=O)c4ccc(N[C@H](CCN5CCOCC5)CSc5ccccc5)c([N+](=O)[O-])c4)cc3)CC2)c1` (stereo partly shown) [2-2-d1E04-2-0495], the “equilibrium dissociation constant KD compared with B2Q045-01 (KD=1.20 μM) or B2Q048-01 (KD=0.480 μM)” value in assay [1] (Biacore T200, 15° C.) was “smaller equilibrium dissociation constant KD”. The Kd in assay [1] was found to be 706 nM. For the same compound, in assay [2], the “AS-MS(%) N1” value turned out to be 52.7%, the “AS-MS(%) N2” value was found to be 137.5%, the “AS-MS(%) N3” value is 56.0% and the “AS-MS(%) N4” value amounted to 50.3%.
Regarding `CCOc1cccc(-c2ccc(CN3CCN(c4ccc(C(=O)NS(=O)(=O)c5ccc(NCCSc6ccccc6)c([N+](=O)[O-])c5)cc4)CC3)cc2C)c1` [Compound B2Q047-01, 4-[4-[[4-(3-ethoxyphenyl)-3-methylphenyl]methyl]piperazin-1-yl]-N-[3-nitro-4-(2-phenylsulfanylethylamino)phenyl]sulfonylbenzamide], in assay [3], the “equilibrium dissociation constant compared with compound B2Q045-01” value is “smaller equilibrium dissociation constant Kp” and the “binding to Bcl-2 confirmed by SPR” value was “confirmed to bind by SPR”.
For `CCOc1cncc(-c2ccc(CN3CCN(c4ccc(C(=O)NS(=O)(=O)c5ccc(NCCSc6ccccc6)c([N+](=O)[O-])c5)cc4)CC3)cc2C)c1` [Compound B2Q048-01, 4-[4-[[4-(5-ethoxypyridin-3-yl)-3-methylphenyl]methyl]piperazin-1-yl]-N-[3-nitro-4-(2-phenylsulfanylethylamino)phenyl]sulfonylbenzamide] the same measures were “smaller equilibrium dissociation constant Kp” and “confirmed to bind by SPR”.
With `CCOc1cncc(-c2ccc(CN3CCN(c4ccc(C(=O)NS(=O)(=O)c5ccc(NCCSc6ccccc6)c([N+](=O)[O-])c5)cc4)CC3)c3ccccc23)c1` [Compound B2Q066-01, 4-[4-[[4-(5-ethoxypyridin-3-yl)naphthalen-1-yl]methyl]piperazin-1-yl]-N-[3-nitro-4-(2-phenylsulfanylethylamino)phenyl]sulfonylbenzamide], the “equilibrium dissociation constant compared with compound B2Q045-01” value in assay [3] is “smaller equilibrium dissociation constant Kp”.
